Biological target: T1, Drak2 (Homo sapiens, UniProt O94768)
T1 sequence (O94768 1-372): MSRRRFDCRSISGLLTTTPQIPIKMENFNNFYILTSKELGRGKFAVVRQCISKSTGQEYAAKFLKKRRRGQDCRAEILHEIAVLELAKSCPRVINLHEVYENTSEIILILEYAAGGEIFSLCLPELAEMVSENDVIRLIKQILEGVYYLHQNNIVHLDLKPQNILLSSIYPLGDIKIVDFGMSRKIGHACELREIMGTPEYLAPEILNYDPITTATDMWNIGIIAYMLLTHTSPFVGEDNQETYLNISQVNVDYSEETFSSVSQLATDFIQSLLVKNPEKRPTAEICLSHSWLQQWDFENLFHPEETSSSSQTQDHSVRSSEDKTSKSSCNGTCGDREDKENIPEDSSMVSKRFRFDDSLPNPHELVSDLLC
Assay: Drak2 activity test, ADP-Glo kinase assay (Promega)
Format: biochemical
Conditions: inhibition of Drak2 kinase activity, 2 h room temperature, activity range classes, read-out: IC50_Drak2

| IC50 | SMILES |
| --- | --- |
| 11 to 100 nM | COc1cc(-c2cncc(-c3cc(NC(=O)CC4CCC4)cs3)n2)ccc1OCCN1CCOCC1 [Example 169, 2-cyclobutyl-N-(5-(6-(3-methoxy-4-(2-morpholinylethoxy)phenyl)pyrazin-2-yl)thiophen-3-yl) acetamide] |
| 11 to 100 nM | COc1cc(-c2cncc(-c3cc(NC(=O)CC4CCC4)cs3)n2)ccc1OCCN1CCCC1=O [Example 170, 2-Cyclobutyl-N-{5-[6-(3-methoxy-4-{[2-(2-oxotetrahydro-1H-pyrrol-1-yl)ethyl]oxy}phenyl)pyrazin-2-yl]thiophen-3-yl} acetamide] |
| 11 to 100 nM | COc1cc(-c2cncc(-c3cc(NC(=O)CC4CCC4)cs3)n2)ccc1OC(O)CN1CCOCC1=O (stereo not drawn) [Example 171] |
| 101 to 1000 nM | COc1cc(-c2cncc(-c3cc(NC(=O)CC4CCC4)cs3)n2)ccc1OCCc1ccccn1 [Example 172, 2-cyclobutyl-N-{5-[6-(3-methoxy-4-{[2-(pyridin-2-yl)ethyl]oxy}phenyl)pyrazin-2-yl]thiophen-3-yl} acetamide] |
| 11 to 100 nM | COc1cc(-c2cncc(-c3cc(NC(=O)CC4CCC4)cs3)n2)ccc1OCCN1CCN(C)CC1 [Example 173, 2-cyclobutyl-N-{5-[6-(3-methoxy-4-{[2-(4-methylpiperazin-1-yl)ethyl]oxy}phenyl)pyrazin-2-yl]thiophen-3-yl}acetamide] |
| 11 to 100 nM | COc1cc(-c2cncc(-c3cc(NC(=O)CC4CCC4)cs3)n2)ccc1OCCc1cnccn1 [Example 174, 2-cyclobutyl-N-{5-[6-(3-methoxy-4-{[2-(pyrazin-2-yl)ethyl]oxy}phenyl)pyrazin-2-yl]thiophen-3-yl} acetamide] |
| 11 to 100 nM | COc1cc(-c2cncc(-c3cc(NC(=O)CC4CCC4)cs3)n2)ccc1OCCN1CCn2ncnc2C1 [Example 175, 2-cyclobutyl-N-{5-[6-(3-methoxy-4-{[2-(5,6,7,8-tetrahydro [1,2,4]triazolo [1,5-a]pyrazin-7-yl)ethyl]oxy}phenyl)pyrazin-2-yl]thiophen-3-yl} acetamide] |
| < 10 nM | COc1cc(-c2cncc(-c3cc(NC(=O)CC4CCC4)cs3)n2)ccc1OCC(=O)N1CCN(C)CC1 [Example 176, 2-cyclobutyl-N-{5-[6-(3-methoxy-4-{[2-(4-methylpiperazin-1-yl)-2-oxoethyl]oxy}phenyl)pyrazin-2-yl]thiophen-3-yl} acetamide] |
| 11 to 100 nM | COc1cc(-c2cncc(-c3cc(NC(=O)CC4CCC4)cs3)n2)ccc1OCCN1CCN(C2CCN(C)CC2)CC1 [Example 177, 2-cyclobutyl-N-(5-{6-[3-methoxy-4-({2-[4-(1-methylhexahydropyridin-4-yl)piperazin-1-yl]ethyl}oxy)phenyl]pyrazin-2-yl}thiophen-3-yl) acetamide] |
| 11 to 100 nM | COc1cc(-c2cncc(-c3cc(NC(=O)CC4CCC4)cs3)n2)ccc1OCCN1CC2(CN(C)C2)C1 [Example 178, 2-cyclobutyl-N-{5-[6-(3-methoxy-4-{[2-(6-methyl-2,6-diazaspiro [3.3]hept-2-yl)ethyl]oxy}phenyl)pyrazin-2-yl]thiophen-3-yl} acetamide] |
| 11 to 100 nM | CCCCC(=O)Nc1csc(-c2cncc(-c3ccc(OCCN4CCOCC4)c(OC)c3)n2)c1 [Example 179, N-{5-[6-(3-methoxy-4-{[2-(morpholin-4-yl)ethyl]oxy}phenyl)pyrazin-2-yl]thiophen-3-yl} pentanamide] |
| 11 to 100 nM | CCCCC(=O)Nc1csc(-c2cncc(-c3ccc(OCCN4CCS(=O)(=O)CC4)c(OC)c3)n2)c1 [Example 180, N-{5-[6-(4-{[2-(1,1-dioxo-1 λ^6-1,4-thiomorpholin-4-yl)ethyl]oxy}-3-methoxyphenyl)pyrazin-2-yl]thiophen-3-yl} pentanamide] |
| 11 to 100 nM | CCCCC(=O)Nc1csc(-c2cncc(-c3ccc(O)c(OC)c3)n2)c1 [Example 181, N-{5-[6-(4-hydroxy-3-methoxyphenyl)pyrazin-2-yl]thiophen-3-yl}pentanamide] |
| 101 to 1000 nM | CCCCNC(=O)c1csc(-c2cncc(-c3ccc(OC)c(OC)c3)n2)c1 [Example 182, N-butyl-5-[6-(3,4-dimethoxyphenyl)pyrazin-2-yl] thiophen-3-formamide] |
| 11 to 100 nM | COc1cc(-c2cncc(-c3cc(NC(=O)CC4CCC4)cs3)n2)ccc1O [Example 183] |
| 11 to 100 nM | COc1cc(-c2cncc(-c3cc(NC(=O)CC4CCC4)cs3)n2)ccc1OCC1CCN(C)CC1 [Example 184, 2-Cyclobutyl-N-(5-(6-(3-methoxy-4-((1-methylpiperidin-4-yl)methoxy)phenyl)pyrazin-2-yl)thiophen-3-yl) acetamide] |
| 11 to 100 nM | COc1cc(-c2cncc(-c3cc(NC(=O)CC4CC(F)(F)C4)cs3)n2)ccc1OCCN1CCOCC1 [Example 185, 2-(3,3-difluorocyclobutyl)-N-(5-(6-(3-methoxy-4-(2-morpholinylethoxy)phenyl)pyrazin-2-yl)thiophen-3-yl) acetamide] |
| < 10 nM | COc1cc(-c2cncc(-c3cc(NC(=O)CC4CCC4)cs3)n2)ccc1O [Example 186] |
| 11 to 100 nM | COc1cc(-c2cncc(-c3cc(NC(=O)CC4CCC4)cs3)n2)ccc1OCCc1cnn(C)c1 [Example 187, 2-Cyclobutyl-N-(5-(6-(3-methoxy-4-(2-(1-methyl-1H-pyrazol-4-yl)ethoxy)phenyl)pyrazin-2-yl)thiophen-3-yl) acetamide] |
| 1000 to 10000 nM | CCCCCCc1csc(-c2cncc(-c3ccc(OC)c(OC)c3)n2)c1 [Example 188, 2-(3,4-Dimethoxyphenyl)-6-(4-hexylthiophen-2-yl) pyrazine] |
| < 10 nM | COc1cc(-c2cncc(-c3cc(NC(=O)CC4CCC4)cs3)n2)ccc1OCCN1CCCC1 [Example 189, 2-Cyclobutyl-N-(5-(6-(3-methoxy-4-(2-(pyrrolidin-1-yl)ethoxy)phenyl)pyrazin-2-yl)thiophen-3-yl) acetamide] |
| 11 to 100 nM | COc1cc(-c2cncc(-c3cc(NC(=O)CC4CCC4)cs3)n2)ccc1OCCN1CCSCC1 [Example 190] |
| < 10 nM | COc1cc(-c2cncc(-c3cc(NC(=O)CC4CCC4)cs3)n2)ccc1OCC(=O)N1CCOCC1 [Example 191, 2-Cyclobutyl-N-{5-[6-(3-methoxy-4-{[2-(morpholin-4-yl)-2-oxoethyl]oxy}phenyl)pyrazin-2-yl]thiophen-3-yl} acetamide] |
| 11 to 100 nM | COc1cc(-c2cncc(-c3cc(NC(=O)CC4CCC4)cs3)n2)ccc1OCC(=O)N1CCN(C2CCN(C)CC2)CC1 [Example 192, 2-Cyclobutyl-N-(5-{6-[3-methoxy-4-({2-[4-(1-methylhexahydropyridin-4-yl)piperazin-1-yl]-2-oxoethyl}oxy)phenyl]pyrazin-2-yl}thiophen-3-yl) acetamide] |
| 11 to 100 nM | CCCCC(=O)Nc1csc(-c2cncc(-c3ccc(OCCN4CCSCC4)c(OC)c3)n2)c1 [Example 193] |
| 11 to 100 nM | CCCCC(=O)Nc1csc(-c2cncc(-c3ccc(OCCN4CC[S+]([O-])CC4)c(OC)c3)n2)c1 [Example 194, N-{5-[6-(3-methoxy-4-{[2-(1-oxo-1λ4-thiomorpholin-4-yl)ethyl]oxy}phenyl)pyrazin-2-yl]thiophen-3-yl} pentanamide] |
| 11 to 100 nM | CCCCC(=O)Nc1csc(-c2cncc(-c3cccc(OC)c3)n2)c1 [Example 195, N-{5-[6-(3-methoxyphenyl)pyrazin-2-yl]thiophen-3-yl} pentanamide] |
